We go through 16 molecules from PubChem BioAssay (NCI).

Test systems include ACHN renal; CAKI-1 renal; HT29 colon; IGROV1 ovarian; LOX IMVI melanoma; M14 melanoma; NCI-H522 lung; SK-OV-3 ovarian; TK-10 renal.
Common to all, as to assay: DTP human tumour cell line panel, 48 h

A word on the TGI: it is the concentration at which net growth stops. High values mean less potent growth arrest, low ones more potent growth arrest.

Each structure is given as a SMILES string.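 Interpolation was linear, between the two tested concentrations surrounding the appropriate level; five concentrations were tested over 48 hours in 96-well plates. TGI is the concentration that stops growth completely.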

`CN/N=C(\C)CC(=O)Nc1cccc(Cl)c1C`: the TGI with ACHN renal, with CAKI-1 renal, in the assay on HT29 colon, with IGROV1 ovarian, in the assay with LOX IMVI melanoma and with M14 melanoma was greater than 100 µM each time. The TGI in the assay on NCI-H522 lung, with SK-OV-3 ovarian and with TK-10 renal was greater than 100 µM in each case.
For `COC(=O)C(C(=O)C(=O)Nc1ccccc1OC)c1csc(-n2nc(-c3ccccc3)cc2-c2ccccc2)n1` (configuration not stated), the TGI in the assay on ACHN renal, in the assay with CAKI-1 renal, in the assay on HT29 colon, in the assay with IGROV1 ovarian, in the assay with LOX IMVI melanoma and in the assay on M14 melanoma was greater than 100 µM each time. Besides, the TGI with NCI-H522 lung, in the assay with SK-OV-3 ovarian and in the assay on TK-10 renal was greater than 100 µM in each case.
Regarding `Cc1ccc(C(=O)/C=C/c2ccccc2Cl)cc1`, the total growth inhibition concentration (TGI) is 29.4 µM in the assay on ACHN renal; 34.6 µM in the assay on CAKI-1 renal; 29.7 µM in the assay with HT29 colon; 32.9 µM with IGROV1 ovarian; 31.4 µM in the assay on M14 melanoma; 26.9 µM in the assay on NCI-H522 lung. Besides, the TGI in the assay on SK-OV-3 ovarian turned out to be 99.5 µM; in the assay with TK-10 renal, 61.7 µM.
Turning to `N/C(=N\C(=S)N1CCCCC1)N1CCCCC1`, the TGI with ACHN renal, in the assay on CAKI-1 renal, in the assay on HT29 colon, with IGROV1 ovarian, in the assay on LOX IMVI melanoma and with M14 melanoma was greater than 100 µM each time. The TGI in the assay on NCI-H522 lung, in the assay with SK-OV-3 ovarian and with TK-10 renal was greater than 100 µM each time.
In the case of `O=C(Nc1cc(C(F)(F)F)ccc1Cl)C(=O)C(C(=O)c1ccc2ccccc2c1)C1OC(=O)c2ccccc21` (configuration not stated), the TGI was greater than 86.7 µM with ACHN renal; greater than 52.5 µM with CAKI-1 renal; 31.7 µM with HT29 colon; greater than 92.5 µM in the assay on IGROV1 ovarian; 25.7 µM in the assay on LOX IMVI melanoma; 25 µM in the assay with M14 melanoma. For the same molecule, the TGI in the assay with NCI-H522 lung is 20 µM; in the assay with SK-OV-3 ovarian, greater than 100 µM; with TK-10 renal, 40.3 µM.
As for `CC1CC(=O)C(C(O)CC2CC(=O)N(c3ccccc3)C(=O)C2)C(C)C1` (configuration not stated), the TGI in the assay with ACHN renal, in the assay on CAKI-1 renal, with HT29 colon, in the assay with IGROV1 ovarian, in the assay on LOX IMVI melanoma and in the assay on M14 melanoma was greater than 100 µM throughout. For the same molecule, the TGI in the assay with NCI-H522 lung, with SK-OV-3 ovarian and in the assay on TK-10 renal was greater than 100 µM throughout.
Consider `O=C1CCC(=O)c2cc(Br)ccc2N1`, for which the TGI with ACHN renal, in the assay with CAKI-1 renal, with HT29 colon, in the assay on IGROV1 ovarian, with LOX IMVI melanoma and with M14 melanoma was greater than 100 µM throughout. Also, the TGI in the assay on NCI-H522 lung, in the assay with SK-OV-3 ovarian and in the assay with TK-10 renal was greater than 100 µM throughout.
For the molecule `CN(C)CC1(C)CC/C(=C\c2ccc3c(c2)OCO3)C1=O` (configuration not stated), the TGI in the assay on ACHN renal, in the assay on CAKI-1 renal, in the assay with HT29 colon, with IGROV1 ovarian, in the assay on LOX IMVI melanoma and in the assay with M14 melanoma was greater than 100 µM in each case. The TGI in the assay on NCI-H522 lung and with TK-10 renal was greater than 100 µM throughout.
`CC(=O)O[C@H]1CCC2[C@@H]3CCC4C(=O)c5oncc5C[C@]4(C)C3CC[C@@]21C` (some centres not stated): the TGI in the assay on ACHN renal, in the assay on HT29 colon, in the assay with IGROV1 ovarian, with LOX IMVI melanoma, with M14 melanoma and with SK-OV-3 ovarian was greater than 100 µM throughout. The molecule further displayed a TGI in the assay with TK-10 renal greater than 100 µM.
In the case of `O=C(O)C1Cc2nc[nH]c2CN1` (configuration not stated), the TGI in the assay with ACHN renal, in the assay with CAKI-1 renal, in the assay on HT29 colon, with IGROV1 ovarian, in the assay on LOX IMVI melanoma and in the assay with M14 melanoma was greater than 100 µM in each case. The TGI in the assay on NCI-H522 lung, in the assay on SK-OV-3 ovarian and in the assay on TK-10 renal was greater than 100 µM throughout.
As to `O=C(C#Cc1c[nH]c(=O)[nH]c1=O)c1ccccc1`, the TGI in the assay with ACHN renal was 29.6 µM; in the assay on CAKI-1 renal it was 32.3 µM; in the assay on HT29 colon, 53.7 µM; in the assay on IGROV1 ovarian, 32.5 µM; in the assay with LOX IMVI melanoma, 16.3 µM; in the assay with M14 melanoma, 18 µM. Moreover, the concentration for total growth inhibition (TGI) with SK-OV-3 ovarian was determined as 62.9 µM; in the assay on TK-10 renal it was 26.7 µM.
With `COC1OC(C)C(OC(=O)C(C)(C)C)C(C)(O)C1O` (configuration not stated), the total growth inhibition concentration (TGI) in the assay on CAKI-1 renal, in the assay with HT29 colon, in the assay with IGROV1 ovarian, in the assay on LOX IMVI melanoma, in the assay on M14 melanoma and in the assay with NCI-H522 lung was greater than 100 µM throughout. For the same molecule, the TGI with TK-10 renal is greater than 100 µM.
With `O=C1OC(=O)C2C3CCC(O3)C12` (configuration not stated), the TGI in the assay with ACHN renal, in the assay on CAKI-1 renal, in the assay on HT29 colon, with IGROV1 ovarian, in the assay on M14 melanoma and in the assay on SK-OV-3 ovarian was greater than 100 µM in each case. The TGI in the assay on TK-10 renal was greater than 100 µM.
On to `Cc1ccc(NC(=O)SCCC(=O)O)cc1NC(=O)SCCC(=O)O`, for which the TGI with ACHN renal, with CAKI-1 renal, with HT29 colon, with IGROV1 ovarian, in the assay on LOX IMVI melanoma and with M14 melanoma was greater than 100 µM in each case. Besides, the TGI with NCI-H522 lung and in the assay with TK-10 renal was greater than 100 µM each time.
Turning to `CCCCCN(CCCCC)C(=O)[C@@H](CCC(=O)OCc1ccccc1)NC(=O)c1cc2ccccc2[nH]1`, the TGI in the assay on ACHN renal, with CAKI-1 renal, with HT29 colon, in the assay with IGROV1 ovarian, with LOX IMVI melanoma and in the assay with M14 melanoma was greater than 100 µM each time. For the same molecule, the TGI with NCI-H522 lung and in the assay with SK-OV-3 ovarian was greater than 100 µM in each case.
Consider `COc1ccc(OC)c(CCc2cc(OC)c(OC)cc2C)c1`, for which the TGI with ACHN renal is greater than 100 µM; in the assay on CAKI-1 renal it was greater than 100 µM; with HT29 colon, greater than 100 µM; in the assay on IGROV1 ovarian, greater than 100 µM; in the assay on M14 melanoma it was greater than 100 µM; with NCI-H522 lung, 20.4 µM. In addition, the TGI in the assay with SK-OV-3 ovarian was 98.4 µM; in the assay on TK-10 renal it was greater than 100 µM.
